Results published in patent US20130331368A1, “METHOD OF TREATING HEPATOCELLULAR CARCINOMA” (Niiki Pharma Acquisition Corp. 2, priority 2011, published 2013).
Converted amounts (≈) assume the structure as drawn. Read-outs that look alike come from different tables or passages of the source.

Tests used:
[1] = test system: HepG2; assay: Literature IC50 in HepG2 (Kogure et al.); type: cell-based, human; details: ratio of literature IC50 values (Kogure et al.)
Protocol: In addition, the IC50 values of 5-FU and cisplatin in the Hep3B and HepG2 cell lines were obtained from Kogure et al., Cancer Chemother. Pharmacol., 53(4):296-304 (2004). The ratios of IC50 values of sodium trans-[tetrachlorobis(1H-indazole)ruthenate(III)] in a cell line sensitive to one of the other drugs and a cell line insensitive to the same drug were calculated. The results are shown in Tables 1-5 below (“Test Drug” in the tables denotes sodium trans-[tetrachlorobis(1H-indazole)ruthenate(III)]). […] As such, sodium trans-[tetrachlorobis(1H-indazole)ruthenate(III)] is potentially effective in treating hepatocellular carcinoma resistant to such other drugs.

[2] = test system: Hep3B; details: from Kogure et al. 2004; cited from earlier work
[3] = test system: HepG2; details: from Kogure et al. 2004; cited from earlier work
[4] = test system: Hep3B; assay: MTT cytotoxicity assay, Hep3B cell line; type: cell-based, human
Protocol: (§1) To test the activities of sodium trans-[tetrachlorobis(1H-indazole)ruthenate(III)] (“drug”), MTT assays were performed using selected hepatocellular carcinoma cell lines. Cells were plated (2×10^3 cells in 100 μl/well) in 96-well plates and allowed to recover for 24 hours. The drug was added in another 100 μl growth medium and incubated with cultured cells for 3 hours before the cell culture medium was replaced to remove the drug. Cell death was measured 72 hours after the initial incubation by MTT assay following the manufacturer's recommendations (EZ4U, Biomedica, Vienna, Austria).
(§2) In addition, the IC50 values of 5-FU and cisplatin in the Hep3B and HepG2 cell lines were obtained from Kogure et al., Cancer Chemother. Pharmacol., 53(4):296-304 (2004). The ratios of IC50 values of sodium trans-[tetrachlorobis(1H-indazole)ruthenate(III)] in a cell line sensitive to one of the other drugs and a cell line insensitive to the same drug were calculated.

[5] = test system: HepG2; assay: MTT cytotoxicity assay, HepG2 cell line; type: cell-based, human; details: for IC50: HepG2; for IC50 Ratio (HepG2/Hep3B): IC50 in HepG2 divided by IC50 in Hep3B
Protocol: as §1, §2

[6] = test system: HCC3; assay: MTT cytotoxicity assay, HCC3 cell line; type: cell-based, human; details: for IC50: HCC3, MTT at 72 h; for IC50 Ratio (HCC3/B1): IC50 in HCC3 divided by IC50 in B1
Protocol: as §1, §2

[7] = test system: HCC2; assay: MTT cytotoxicity assay, HCC2 cell line; type: cell-based, human; details: for IC50: HCC2, MTT; for IC50 Ratio (HCC2/HCC3): IC50 in HCC2 divided by IC50 in HCC3
Protocol: as §1, §2

[8] = test system: B1; assay: MTT cytotoxicity assay, B1 cell line; type: cell-based, human
Protocol: as §1, §2

[9] = test system: Hep3B cells; details: for increase in life span: versus control group (33 days)
Protocol: Separately, the activity of sodium trans-[tetrachlorobis(1H-indazole)ruthenate(III)] against Hep3B cells was evaluated in xenograft experiments using female SCID mice as compared to the standard therapy sorafenib. Sodium trans-[tetrachlorobis(1H-indazole)ruthenate(III)] was administered IV at 30 mg/kg once a week for two weeks. Sorafenib was administered P.O. at 25 mg/kg daily five times a week for two weeks.

[10] = test system: hepatocellular carcinoma; details: late stage HCC patients with well preserved liver function; cited from earlier work
[11] = test system: HCC1.2; assay: MTT cytotoxicity assay, HCC1.2 cell line; type: cell-based, human; details: 3 h drug incubation, MTT at 72 h
Protocol: as §1

[12] = test system: hepatocellular carcinoma cell lines; assay: MTT cytotoxicity assay, mean over selected hepatocellular carcinoma cell lines; type: cell-based, human; details: mean over tested HCC cell lines, after 72 hours
Protocol: as §1

[13] = test system: Hep3B cells; assay: Apoptosis induction, DAPI staining of nuclear morphology; type: cell-based, human; details: 24 hours of drug treatment
Protocol: To evaluate the mechanisms underlying the drug activity, apoptosis induction as well as impact on cell cycle distribution and proliferation of Hep3B cells were evaluated (FIG. 2). Specifically, the hepatoma cell line Hep3B was purchased from American Type Culture Collection (ATCC), Manassas, Va. All cells were grown in RPMI 1640 supplemented with 10% FCS. Cultures were regularly checked for Mycoplasma contamination. After 24 hours of drug treatment, cells were harvested, washed in PBS and cytospins were prepared. After fixation with a 1:1 methanol/acetone solution, slides were stained with 4′,6-diamidino-2-phenylindole (DAPI) containing antifade solution (Vector Laboratories, Inc., USA). Nuclear morphology of cells was examined using a Laica DMRXA fluorescence microscope (Laica Mikroskopie and System, Wetzlar, Germany) equipped with appropriate epifluorescence filters and a COHU charge-douples device camera. Duplicate slides were prepared for each cell type/treatment group and 300-500 cells were counted for each sample.
Treatment with sodium trans-[tetrachlorobis(1H-indazole)ruthenate(III)] led to typical morphological signs of programmed cell death like cell shrinkage, chromatin condensation and formation of apoptotic bodies. […]

[14] = test system: PARP; assay: PARP cleavage by Western blot; type: cell-based, human; details: 24 hours of drug treatment
Protocol: Treatment with sodium trans-[tetrachlorobis(1H-indazole)ruthenate(III)] led to typical morphological signs of programmed cell death like cell shrinkage, chromatin condensation and formation of apoptotic bodies. Apoptotic cell death induced by sodium trans-[tetrachlorobis(1H-indazole)ruthenate(III)] was further characterized by PARP cleavage examined by Western Blot Analyses. Specifically, after 24 hours of drug treatment, protein extracts were prepared and Western blot analyses performed. Rabbit Anti-PARP from Apoptosis Sampler kit (Cell Signaling Technology, Beverly, Mass.) (dilution 1:1000)[…]) was used. For loading control β-actin monoclonal mouse AC-15 (Sigma, USA, dilution: 1:1000) was used. All secondary peroxidase-labeled antibodies were purchased from Santa Cruz Biotechnology and used at working dilution of 1:10000.

[15] = test system: Hep3B cells; assay: Mitochondrial membrane depolarization, JC-1 staining and FACS; type: cell-based, human
[16] = test system: Hep3B cells; assay: DNA synthesis rate by 3H-thymidine incorporation; type: cell-based, human
[17] = test system: Hep3B cells; assay: Cell cycle distribution, PI staining and FACS; type: cell-based, human; details: 24 hours of treatment, PI staining, FACS
[18] = test system: stress kinase P38 and extracellular signal-regulated kinase (ERK); assay: Phosphorylation of P38 and ERK; type: cell-based, human; details: 24 hours of treatment
[19] = test system: colon cancer cell line SW480; details: Kapitza et al. 2005; cited from earlier work
[20] = test system: colon cancer cell line HT29; details: Kapitza et al. 2005; cited from earlier work
[21] = Hep3B xenograft, female SCID mice

SMILES | IC50 Ratio (HepG2/Hep3B) [1] | IC50 [2] | IC50 [3] | IC50 Ratio (HepG2/Hep3B) [5] | IC50 [6] | IC50 [7] | IC50 Ratio (HCC2/HCC3) [7] | IC50 Ratio (HCC3/B1) [6] | mean survival [9, 21] | increase in life span ([9]; Hep3B xenograft) | other results
O=c1[nH]cc(F)c(=O)[nH]1 [5-FU] | >5.2 | 227 µg/mL (≈ 1750 µM) | 17.2 µg/mL (≈ 132 µM) | – | – | – | – | – | – | – | –
N.N.[Cl][Pt][Cl] [Cisplatin, cisplatin] | >5.2 | 3.75 µg/mL | 19.4 µg/mL | – | – | – | – | – | – | – | –
COc1cccc2c1C(=O)c1c(O)c3c(c(O)c1C2=O)C[C@@](O)(C(=O)CO)C[C@@H]3O[C@H]1C[C@H](N)[C@H](O)[C@H](C)O1 [Doxorubicin, doxorubicin, reference compound] | – | – | – | >3.6 | – | – | – | – | – | – | IC50 ([4]; Homo sapiens): 0.0693 µM; IC50 ([5]; Homo sapiens): > 0.25 µM
O=C1[O][Pt]2([NH][C@@H]3CCCC[C@H]3[NH]2)[O]C1=O [Oxaliplatin, oxaliplatin, reference compound] | – | – | – | – | 0.41 µM | 4.05 µM | >9.9 | – | – | – | –
CNC(=O)c1cc(Oc2ccc(NC(=O)Nc3ccc(Cl)c(C(F)(F)F)c3)cc2)ccn1 [Sorafenib, sorafenib, reference compound] | – | – | – | – | – | – | – | >12.5 | 60 days | 1.9 fold | IC50 ([6]; Homo sapiens): > 10 µM; IC50 ([8]; Homo sapiens): 0.8 µM; added lifespan [10]: two
[Cl][Ru-]([Cl])([Cl])[Cl].[Na+].c1ccc2[nH]ncc2c1.c1ccc2[nH]ncc2c1 [sodium trans-[tetrachlorobis(1H-indazole)ruthenate(III)]] | – | – | – | 1.1 | 67.5 µM | 129 µM | 1.9 | 0.8 | 80 days | 2.4 fold | IC50 [11]: 62.9 µM; IC50 [8]: 83.4 µM; IC50 ([4]; MTT): 167 µM; IC50 ([5]; MTT): 189 µM; IC50 [12]: 124 µM; apoptosis induction [13]: significant apoptosis; PARP cleavage [14]: PARP cleavage induced; cells with mitochondrial membrane depolarization [15]: increase of cells with mitochondrial membrane depolarization; DNA synthesis rate [16]: significantly reduce DNA synthesis rate; cell cycle distribution [17]: increase of cells in G2/M phase; phosphorylation of P38 and ERK [18]: strong phosphorylation; tumor growth ([9]; Hep3B xenograft, female SCID mice, IV 30 mg/kg once a week for two weeks): effectively suppressed the growth of tumor; tolerability ([9]; female SCID mice, IV 30 mg/kg once a week for two weeks): well tolerated; killing of tumor cells [19]: effective in killing tumor cells; killing of tumor cells [20]: effective in killing tumor cells
